Assay results taken from patent US20150307520A1, “NOVEL HETEROARYL AND HETEROCYCLE COMPOUNDS, COMPOSITIONS AND METHODS THEREOF” (HUTCHISON MEDIPHARMA LIMITED, priority 2012, published 2015).

Columns and labels:
Type in all cases: biochemical
p110β/p85α = p110β/p85α (Homo sapiens, UniProt P42338); assay: Transcreener KINASE Assay, kinase inhibition of p110β/p85α; details: for PI3Kβ IH % @ 1 uM: 1 uM test compound; for IC50: read-out: PI3Kβ IC50
Method: (§1) PI3K kinases including p110α/p85α, p110δ/p85α and p110γ are purchased from Invitrogen, and p110β/p85α is from Millipore.
(§2) Primary screening data and IC50 values are measured using Transcreener™ KINASE Assay (Bellbrook, Catalog #3003-10K). […] It is a universal, homogenous, high throughput screening (HTS) technology using a far-red, competitive fluorescence polarization immunoassay based on the detection of ADP to monitor the activity of enzymes that catalyze group transfer reactions. Briefly, the Transcreener KINASE Assay is designed as a simple two-part, endpoint assay.
(§3) In the first step, the 25 ul kinase reaction is performed by preparing a reaction mixture containing 5 ul test compound (2% DMSO final concentration), 10 ul kinase, buffer (50 mM HEPES, 100 mM NaCl, 1 mM EGTA, 0.03% CHAPS, 3 mM MgCl2, and freshly supplemented 1 mM DTT), and 10 ul 30 uM PIP2/10 uM ATP. The plate is sealed and incubated for 80 min at room temperature. Next, 25 ul ADP detection mix is added per well. The plate is sealed again and incubated for 60 min at room temperature, and then measure fluorescence polarization by Tecan Infinite F500 Reader.
(§4) Data is analyzed and IC50s are generated using the add-in software for Microsoft Excel, Xlfit™ (version 2.0). IH %=(ADP amount under 2% DMSO-ADP amount under test compound)/ADP amount under 2% DMSO.

p110δ/p85α = p110δ/p85α (Homo sapiens, UniProt O00329); assay: Transcreener KINASE Assay, kinase inhibition of p110δ/p85α; details: for PI3Kδ IH % @ 1 uM: 1 uM test compound; for IC50: read-out: PI3Kδ IC50
Method: as §1, §2, §3, §4

p110γ = p110γ (Homo sapiens, UniProt P48736); assay: Transcreener KINASE Assay, kinase inhibition of p110γ; details: for PI3Kγ IH % @ 1 uM: 1 uM test compound; for IC50: read-out: PI3Kγ IC50
Method: Kinase Inhibition assays of p110α/p85α, p110β/p85α, p110δ/p85α and p110γ PI3K kinases including p110α/p85α, p110δ/p85α and p110γ are purchased from Invitrogen, and p110β/p85α is from Millipore. Primary screening data and IC50 values are measured using Transcreener™ KINASE Assay (Bellbrook, Catalog #3003-10K). […] It is a universal, homogenous, high throughput screening (HTS) technology using a far-red, competitive fluorescence polarization immunoassay based on the detection of ADP to monitor the activity of enzymes that catalyze group transfer reactions. Briefly, the Transcreener KINASE Assay is designed as a simple two-part, endpoint assay. […] The plate is sealed and incubated for 80 min at room temperature. Next, 25 ul ADP detection mix is added per well. The plate is sealed again and incubated for 60 min at room temperature, and then measure fluorescence polarization by Tecan Infinite F500 Reader. Data is analyzed and IC50s are generated using the add-in software for Microsoft Excel, Xlfit™ (version 2.0).

p110γ, sequence (P48736 whole entry): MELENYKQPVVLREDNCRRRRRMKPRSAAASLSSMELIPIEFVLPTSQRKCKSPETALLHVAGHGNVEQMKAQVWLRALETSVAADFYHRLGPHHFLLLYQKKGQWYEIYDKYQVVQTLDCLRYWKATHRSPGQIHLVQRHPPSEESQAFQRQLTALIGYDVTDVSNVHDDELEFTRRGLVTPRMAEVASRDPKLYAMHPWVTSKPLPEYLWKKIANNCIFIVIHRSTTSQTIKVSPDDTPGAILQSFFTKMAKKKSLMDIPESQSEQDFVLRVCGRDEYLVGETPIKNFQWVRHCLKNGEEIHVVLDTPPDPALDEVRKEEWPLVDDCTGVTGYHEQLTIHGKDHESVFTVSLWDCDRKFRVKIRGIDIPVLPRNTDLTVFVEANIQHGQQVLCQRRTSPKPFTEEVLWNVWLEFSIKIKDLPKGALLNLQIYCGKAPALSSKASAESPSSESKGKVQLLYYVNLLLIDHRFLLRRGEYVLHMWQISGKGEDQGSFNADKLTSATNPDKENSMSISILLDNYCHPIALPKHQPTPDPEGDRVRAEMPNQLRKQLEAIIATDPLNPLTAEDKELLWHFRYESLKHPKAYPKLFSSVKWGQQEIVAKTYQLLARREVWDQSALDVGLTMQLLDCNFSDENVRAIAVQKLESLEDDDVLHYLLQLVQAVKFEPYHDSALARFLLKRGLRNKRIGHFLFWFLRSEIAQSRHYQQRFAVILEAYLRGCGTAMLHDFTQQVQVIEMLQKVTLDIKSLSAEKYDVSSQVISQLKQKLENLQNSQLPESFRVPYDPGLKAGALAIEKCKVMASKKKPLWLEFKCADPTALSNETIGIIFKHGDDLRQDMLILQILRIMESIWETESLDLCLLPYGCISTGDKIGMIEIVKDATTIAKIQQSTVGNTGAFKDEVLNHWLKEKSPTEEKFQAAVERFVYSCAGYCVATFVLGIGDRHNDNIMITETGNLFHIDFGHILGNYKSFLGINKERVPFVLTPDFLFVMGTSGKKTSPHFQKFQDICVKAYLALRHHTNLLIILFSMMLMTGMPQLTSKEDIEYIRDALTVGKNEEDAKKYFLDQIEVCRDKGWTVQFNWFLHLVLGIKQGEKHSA
p110β/p85α, sequence (P42338 whole entry): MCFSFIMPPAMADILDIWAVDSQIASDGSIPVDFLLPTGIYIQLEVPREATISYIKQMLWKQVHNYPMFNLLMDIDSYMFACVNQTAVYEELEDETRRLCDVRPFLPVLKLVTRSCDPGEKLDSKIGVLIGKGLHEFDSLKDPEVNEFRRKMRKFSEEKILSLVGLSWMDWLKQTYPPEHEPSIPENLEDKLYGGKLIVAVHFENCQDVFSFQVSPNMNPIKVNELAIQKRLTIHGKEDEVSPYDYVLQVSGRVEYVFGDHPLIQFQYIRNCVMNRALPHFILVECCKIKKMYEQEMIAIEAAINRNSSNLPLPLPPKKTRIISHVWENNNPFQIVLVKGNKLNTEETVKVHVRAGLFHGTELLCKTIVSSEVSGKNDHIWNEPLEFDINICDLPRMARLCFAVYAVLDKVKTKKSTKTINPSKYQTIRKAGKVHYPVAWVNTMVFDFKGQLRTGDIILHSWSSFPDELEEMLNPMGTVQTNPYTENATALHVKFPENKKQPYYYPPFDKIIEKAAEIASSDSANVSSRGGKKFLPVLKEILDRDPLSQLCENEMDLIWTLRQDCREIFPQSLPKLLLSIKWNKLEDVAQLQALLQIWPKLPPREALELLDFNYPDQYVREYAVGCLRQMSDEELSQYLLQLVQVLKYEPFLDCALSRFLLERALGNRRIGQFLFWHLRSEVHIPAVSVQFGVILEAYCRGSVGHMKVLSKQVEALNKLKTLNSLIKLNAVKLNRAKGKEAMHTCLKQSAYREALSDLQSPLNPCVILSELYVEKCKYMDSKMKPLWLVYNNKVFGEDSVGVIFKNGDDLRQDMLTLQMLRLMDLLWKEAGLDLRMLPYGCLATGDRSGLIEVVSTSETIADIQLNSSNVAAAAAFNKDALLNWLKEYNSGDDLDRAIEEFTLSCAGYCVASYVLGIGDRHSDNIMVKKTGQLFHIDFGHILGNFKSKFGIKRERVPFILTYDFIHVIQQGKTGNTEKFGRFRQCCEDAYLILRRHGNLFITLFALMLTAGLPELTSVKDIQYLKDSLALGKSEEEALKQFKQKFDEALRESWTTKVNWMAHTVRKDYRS
p110β/p85α, sequence (P27986 2-724 partner): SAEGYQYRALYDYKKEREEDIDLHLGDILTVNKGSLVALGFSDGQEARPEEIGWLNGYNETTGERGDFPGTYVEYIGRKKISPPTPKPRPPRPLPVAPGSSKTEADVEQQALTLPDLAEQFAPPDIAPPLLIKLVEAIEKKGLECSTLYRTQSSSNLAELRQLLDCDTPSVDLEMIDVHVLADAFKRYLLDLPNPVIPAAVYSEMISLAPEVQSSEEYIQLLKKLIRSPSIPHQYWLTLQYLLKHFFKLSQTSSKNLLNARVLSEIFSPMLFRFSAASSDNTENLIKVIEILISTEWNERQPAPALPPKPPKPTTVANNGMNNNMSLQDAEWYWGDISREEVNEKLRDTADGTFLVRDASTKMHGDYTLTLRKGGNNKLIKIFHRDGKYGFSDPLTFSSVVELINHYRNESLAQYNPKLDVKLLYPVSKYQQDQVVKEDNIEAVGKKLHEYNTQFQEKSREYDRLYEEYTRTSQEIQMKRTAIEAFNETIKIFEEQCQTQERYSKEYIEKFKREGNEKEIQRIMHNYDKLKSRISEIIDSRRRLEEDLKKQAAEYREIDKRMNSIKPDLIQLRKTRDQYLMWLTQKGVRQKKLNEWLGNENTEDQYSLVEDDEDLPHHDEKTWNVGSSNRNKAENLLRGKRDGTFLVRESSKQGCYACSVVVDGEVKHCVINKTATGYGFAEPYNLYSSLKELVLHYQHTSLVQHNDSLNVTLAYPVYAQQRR
p110δ/p85α, sequence (O00329 whole entry): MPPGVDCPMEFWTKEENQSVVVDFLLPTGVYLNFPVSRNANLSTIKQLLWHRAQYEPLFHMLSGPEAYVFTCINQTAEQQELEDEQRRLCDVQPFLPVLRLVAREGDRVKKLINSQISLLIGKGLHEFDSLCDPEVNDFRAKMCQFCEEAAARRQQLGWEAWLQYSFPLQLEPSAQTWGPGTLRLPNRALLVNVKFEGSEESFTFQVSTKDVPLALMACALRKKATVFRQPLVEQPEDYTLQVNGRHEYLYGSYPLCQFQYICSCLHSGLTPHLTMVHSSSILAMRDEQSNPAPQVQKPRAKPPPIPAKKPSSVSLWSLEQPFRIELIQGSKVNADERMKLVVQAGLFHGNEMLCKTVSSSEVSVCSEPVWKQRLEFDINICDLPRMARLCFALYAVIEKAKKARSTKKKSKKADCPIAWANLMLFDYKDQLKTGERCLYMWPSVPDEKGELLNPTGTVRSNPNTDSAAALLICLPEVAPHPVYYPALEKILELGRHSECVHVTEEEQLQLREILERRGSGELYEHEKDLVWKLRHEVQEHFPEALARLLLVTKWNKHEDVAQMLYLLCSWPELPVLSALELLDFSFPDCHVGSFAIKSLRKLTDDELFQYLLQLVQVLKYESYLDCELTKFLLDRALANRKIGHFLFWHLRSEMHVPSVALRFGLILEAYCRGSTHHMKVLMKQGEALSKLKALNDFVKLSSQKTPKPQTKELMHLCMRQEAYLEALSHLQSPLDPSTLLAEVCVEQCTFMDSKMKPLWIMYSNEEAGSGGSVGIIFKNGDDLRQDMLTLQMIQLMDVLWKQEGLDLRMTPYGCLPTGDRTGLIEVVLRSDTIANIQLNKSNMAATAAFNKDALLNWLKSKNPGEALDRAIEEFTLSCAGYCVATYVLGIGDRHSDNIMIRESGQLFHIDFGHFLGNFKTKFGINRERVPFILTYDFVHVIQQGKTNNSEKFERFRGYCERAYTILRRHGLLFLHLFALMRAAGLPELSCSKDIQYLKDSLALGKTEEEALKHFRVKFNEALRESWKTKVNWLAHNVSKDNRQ
p110δ/p85α, sequence (P27986 whole entry partner): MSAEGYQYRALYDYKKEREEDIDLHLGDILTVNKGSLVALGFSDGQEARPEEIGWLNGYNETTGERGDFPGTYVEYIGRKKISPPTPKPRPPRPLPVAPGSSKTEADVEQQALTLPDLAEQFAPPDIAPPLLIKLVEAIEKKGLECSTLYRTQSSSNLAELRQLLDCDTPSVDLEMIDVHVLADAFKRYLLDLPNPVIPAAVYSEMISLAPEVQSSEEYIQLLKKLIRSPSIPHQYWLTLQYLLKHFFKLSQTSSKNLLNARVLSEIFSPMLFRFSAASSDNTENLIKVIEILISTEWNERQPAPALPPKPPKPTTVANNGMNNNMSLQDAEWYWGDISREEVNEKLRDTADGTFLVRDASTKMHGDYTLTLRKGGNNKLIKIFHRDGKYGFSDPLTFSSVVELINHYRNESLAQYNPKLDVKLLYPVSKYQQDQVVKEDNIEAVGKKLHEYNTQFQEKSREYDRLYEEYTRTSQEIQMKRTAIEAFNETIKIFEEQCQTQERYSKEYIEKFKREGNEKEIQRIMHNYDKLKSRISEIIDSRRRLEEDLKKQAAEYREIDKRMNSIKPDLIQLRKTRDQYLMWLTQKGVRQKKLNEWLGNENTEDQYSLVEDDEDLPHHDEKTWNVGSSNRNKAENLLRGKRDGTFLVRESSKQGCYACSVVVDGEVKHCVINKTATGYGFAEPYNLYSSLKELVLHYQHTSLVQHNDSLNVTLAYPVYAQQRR

SMILES | PI3Kβ IH % @ 1 uM (p110β/p85α) | IC50 (p110β/p85α) | PI3Kδ IH % @ 1 uM (p110δ/p85α) | IC50 (p110δ/p85α) | PI3Kγ IH % @ 1 uM (p110γ) | IC50 (p110γ)
C[C@H](Nc1nc(N)ncc1C#N)c1cc2ncc(Cl)n2c(=O)n1-c1ccccc1 (single isomer, unassigned) [Compound 385] | 83.3% | 75 nM | >100% | 4 nM | 95.9% | 10 nM
C[S@+]([O-])c1c[nH]c2ncnc(N3CCC[C@H]3c3nn4ccc(Cl)c4c(=O)n3-c3cccc(F)c3)c12 (single isomer, unassigned) [Compound 386] | 76.8% | 322 nM | >100% | 3 nM | 95.0% | 21 nM
C[S+]([O-])c1c[nH]c2ncnc(N3CCC[C@H]3c3nn4ccc(Cl)c4c(=O)n3-c3cccc(F)c3)c12 (single isomer, unassigned) [Compound 387] | 39.6% | – | 98.2% | 7 nM | >100% | 9 nM
C[S+]([O-])c1c[nH]c2ncnc(N3CCC[C@H]3c3nn4ccc(Cl)c4c(=O)n3-c3ccccn3)c12 (single isomer, unassigned) [Compound 389] | 32.7% | – | 95.4% | 7 nM | 87.9% | 46 nM
CC(Nc1nc(N)nc2c1C(=O)CCN2)c1cn2ccc(F)c2c(=O)n1-c1ccccc1 (single isomer, unassigned) [Compound 407] | >100% | – | 94.9% | – | >100% | –
CC(=O)c1cnc(N)nc1N[C@H](C)c1cc2ncc(Cl)n2c(=O)n1-c1ccccc1 (single isomer, unassigned) [Compound 448] | 55.9% | – | 98.8% | 17 nM | 82.3% | 105 nM
CC(Nc1nc(N)ncc1C#N)c1cn2ccc(F)c2c(=O)n1-c1ccccc1 (single isomer, unassigned) [Compound 449] | 87.2% | – | 96.1% | – | 97.8% | –
CC(Nc1ncnc2[nH]cc(F)c12)c1cc2ncc(Cl)n2c(=O)n1-c1ccccc1 (single isomer, unassigned) [Compound 450] | 76.9% | – | 99.3% | – | 98.6% | –
CC(Nc1ncnc2[nH]cc(F)c12)c1cc2ncc(Cl)n2c(=O)n1-c1ccccc1 (single isomer, unassigned) [Compound 451] | 4.2% | – | 96.4% | – | 40.5% | –
CC(=O)c1cnc(N)nc1NC(C)c1cn2ccc(F)c2c(=O)n1-c1ccccc1 (single isomer, unassigned) [Compound 452] | 97.0% | – | >100% | – | 92.5% | –
CC(=O)c1cnc(N)nc1N1CC(C)(C)C1c1nn2ccc(Cl)c2c(=O)n1-c1ccccc1 (stereo in doubt) [Compound 484, (R)-2-(1-(5-acetyl-2-aminopyrimidin-4-yl)-3,3-dimethylazetidin-2-yl)-5-chloro-3-phenylpyrrolo[2,1-f][1,2,4]triazin-4(3H)-one] | 88.3% | 22 nM | >100% | 0.1 nM | >100% | 6 nM
N#Cc1c(N)ncnc1N1CC[C@H]1c1nn2cccc2c(=O)n1-c1ccccc1 [Compound 8] | 33.3% | – | 76.2% | 272 nM | 40.2% | –
Nc1ncnc(N2CCC[C@H]2c2nn3ccc(Cl)c3c(=O)n2-c2ccccc2)c1Cl [Compound 27] | 82.6% | 100 nM | >100% | 3 nM | 92.7% | 51 nM
COc1cccc(-n2c([C@@H]3CCN3c3ncnc4[nH]cnc34)nn3ccc(Cl)c3c2=O)c1 [Compound 33] | −3.1% | – | 71.9% | 212 nM | 63.7% | –
N#Cc1c[nH]c2ncnc(N3CC[C@H]3c3nn4ccc(Cl)c4c(=O)n3-c3ccc(F)cc3)c12 [Compound 37] | 30.6% | – | 81.2% | – | 83.3% | 89 nM
CC(Nc1ncnc2[nH]cnc12)c1cn2ccc(Cl)c2c(=O)n1-c1ccccc1 (stereo not drawn) [Compound 87] | 90.8% | 49 nM | – | – | >100% | 8 nM
Nc1ncc(C(=O)C(F)(F)F)c(N2CC[C@H]2c2nn3ccc(Cl)c3c(=O)n2-c2ccccc2)n1 [Compound 325] | – | – | – | 524 nM | – | –
Nc1nc(N2CC[C@H]2c2nn3ccc(Cl)c3c(=O)n2-c2ccccc2)c2cccn2n1 [Compound 329, (S)-2-(1-(2-aminopyrrolo[2,1-f][1,2,4]triazin-4-yl)azetidin-2-yl)-5-chloro-3-phenyl-pyrrolo[2,1-f][1,2,4]triazin-4(3H)-one] | – | – | 50.3% | – | 91.6% | 227 nM
N#Cc1cnc(N)nc1N1CCC1c1nn2ccc(Cl)c2c(=O)n1CC1CC1 (stereo not drawn) [Compound 373] | 37.4% | – | – | – | – | –
C[C@H]1CN(c2ncnc(N)c2C#N)C1c1nn2ccc(Cl)c2c(=O)n1-c1ccccc1 (stereo partly drawn) [Compound 494] | 55.70% | – | – | – | 93.5% | –
CC(=O)c1cnc(N)nc1N1CC[C@H]1c1nn2ccc(Cl)c2c(=O)n1-c1cc(F)cc(F)c1 [Compound 495] | – | – | 99.5% | – | >100% | –
CC(=O)c1cnc(N)nc1N1CC[C@H]1c1nn2ccc(C#N)c2c(=O)n1-c1ccccc1 [Compound 498] | – | – | >100% | 21 nM | >100% | 13 nM
CC(=O)c1c(N)ncnc1N1C[C@H](C)[C@H]1c1nn2ccc(Cl)c2c(=O)n1-c1ccccc1 [Compound 509] | – | – | >100% | – | >100% | –
CC(=O)c1cnc(N)nc1N1C[C@H](C)[C@H]1c1nn2ccc(Cl)c2c(=O)n1-c1cc(F)cc(F)c1 [Compound 518] | – | – | >100% | – | >100% | –
